Patent US20250387481A1, “PRE-TREATED T CELLS FOR USE AS A MEDICAMENT” (STICHTING HET NEDERLANDS KANKER INSTITUUT-ANTONI VAN …, priority 2022, published 2025)

Assays:
[1] = system: A375 (melanoma), EGL1 (hepatobiliary cancer) and MDA-MB-231 (breast cancer); KB1P organoids; assay: Co-culture of cancer cells or KB1P organoids with T cells pretreated with vinblastine; type: cell-based, human; settings: Jurkat or mouse splenic T cells pretreated with vinblastine; MTT, cleaved caspase 3
Text: Data are shown for three different cell lines derived from human cancer, namely A375 (melanoma), EGL1 (hepatobiliary cancer) and MDA-MB-231 (breast cancer). Organoid apoptosis (determined by cleaved caspase 3 staining) in breast cancer mouse KB1P organoids following co-culture with mouse splenic T cells pretreated with control, vinblastine or colchicine is also shown in FIG. 18. Data are presented as mean with SEM. N=3 biological repeats per repeat.

KB1P organoids = assay: Co-culture of pre-treated splenic T cells with KB1P organoids (MTT, cleaved-caspase 3); type: cell-based, mouse; settings: LCKi 10 μmol/L
[2] = system: MMTV-PyMT organoids expressing OVA; assay: Co-culture of OT I T cells with MMTV-PyMT organoids expressing OVA (cleaved-caspase 3); type: cell-based, mouse; settings: LCKi 10 μmol/L
Experimental: Experiments were approved by the Animal Welfare Committee of the Netherlands Cancer Institute and were performed in accordance with national guidelines. Mice were housed in individually ventilated cage (IVC) systems under specific pathogen-free conditions and received chow and water ad libitum. FVB/NRj females (Janvier), C57BL/6-Tg (TcraTcrb) 1100Mjb/J females (OT I mice, Jackson laboratory), and ROSA26mTmG FVB females (NKI) were used at 8-20 weeks of age at the time of fat pad injection of tumor organoids or spleen isolation.
For T cells isolated from mouse mammary tumors, T cells were directly co-cultured with tumor organoids after FACS isolation. For T cells isolated from the spleen, T cells were treated for 72 h with PBS or with docetaxel (docetaxel 10 nmol/L), in the presence or absence of an LCKi (10 μmol/L, Merck Millipore, Cat. No. 213743-31-8). To evaluate the docetaxel-specificity of our observations, T cells were treated with paclitaxel 10 nmol/L or carboplatin 50 μmol/L for 72 h. Subsequently, T cells were collected and washed 3 times in PBS to remove residual chemotherapy or LCKi.
Organoids were fixed in 4% paraformaldehyde in PBS for 20 min at room temperature, followed by permeabilization in 0.2% TritonX-100 in PBS for 15 min at room temperature. […]

Structure (SMILES)	T cell mediated cancer cell killing [1]	effect of LCK inhibition on docetaxel-increased cytotoxic activity of CD4 or CD8 T cells (KB1P organoids)	killing of OVA-expressing organoids by OT I T cells [2]
CC[C@]1(O)C[C@@H]2CN(CCc3c([nH]c4ccccc34)[C@@](C(=O)OC)(c3cc4c(cc3OC)N(C)[C@H]3[C@@](O)(C(=O)OC)[C@H](OC(C)=O)[C@]5(CC)C=CCN6CC[C@]43[C@@H]65)C2)C1 [Vinblastine, vinblastine]	induces T cell mediated cancer cell killing	–	–
Nc1ncnc2c1c(-c1ccc(Oc3ccccc3)cc1)cn2C1CCCC1 [LCKi]	–	did not impair	reduced killing
